Patent publication US10064826B2, “Direct compression and dry granulation processes for preparing carglumic acid tablets having less impurities than those produced by wet granulation process” (Navinta, LLC, priority 2013, dated 2018)

Assay: Stability under stress conditions (alkaline, acidic, light, oxidizing medium)
Assay type: physicochemical
Settings: light or hydrogen peroxide
Experimental: Both batches of carglumic acid tablets from Examples 1 and 2 are also evaluated for stability under stress conditions.
Principal degradation products are hydantoin-5-propionic acid (“5-HPA”) and diaza-1,3-dione-2,4-carboxy-7-cycloheptane. Among them, 5-HPA is toxic and thus it must be controlled below 0.1%. L-Pyroglutamic acid is another common impurity in the carglumic acid tablet.

SMILES: NC(=O)N[C@@H](CCC(=O)O)C(=O)O [Carglumic acid, (2S)-2-(carbamoylamino)pentanedioic acid]
- Degradation when exposed to light or an oxidizing medium: slowly degraded
